Assay results from US12650422B2, “Utility of protein in the prediction of in vivo effects” (Qualyst Transporter Solutions, LLC, priority 2014, dated 2026).
Like-named read-outs stand apart in the source and are kept apart here.

How the values were obtained:
Rat Hepatocytes = test: Hepatic intracellular concentration (ICC) in rat hepatocytes, observed vs predicted; assay type: in vitro ADME; conditions: for Observed ICC (uM) BSA: one-step method with BSA
Text: The hepatic intracellular concentration (ICC) of a compound, which reflects the balance of the uptake, metabolism, and efflux out of the cell, can also be determined in the absence and presence of protein.

[1] = system: sandwich-cultured rat hepatocytes; test: Intrinsic biliary clearance in sandwich-cultured rat hepatocytes; conditions: for Observed Cl (ml/min/Kg) BSA: measured in the presence of BSA
Text: Representative calculations that can be employed in accordance with the presently disclosed subject matter include the calculations of a biliary excretion index and a biliary clearance value. […] In some embodiments, the BEI is a calculation of the uptake and excretion of the candidate compound as follows: 100%×{(uptake in the culture with intact bile canaliculi minus uptake within hepatocytes only in the Ca^2+-free culture) divided by (uptake in the culture with intact bile canaliculi)}. In some embodiments, the biliary clearance calculation is performed as follows: (uptake in the culture with intact bile canaliculi minus uptake within hepatocytes only in the Ca^2+-free culture) divided by (time of incubation multiplied by the concentration of the candidate compound in the buffer medium). In some embodiments, a biliary clearance value can be calculated as the ratio of the mass in the bile canaliculi and the area under the curve (AUC) in culture medium, wherein the AUC represents the integral of candidate compound in the medium from time 0 to time T (time can be measure in any desired units, and is usually measured in minutes). Indeed, the term AUC can refer to the following equation: […]
The data for each compound was determined in sandwich-cultured rat hepatocytes at a concentration of 1 μM and an exposure time of 10 minutes in buffer (no protein), in buffer with 4% BSA, or in rat serum.
This latter method is the current industry standard.

[2] = Free fraction by equilibrium dialysis in serum; assay type: in vitro ADME; conditions: DPDPE line: 1 uM; for fraction unbound: serum
Description: (§5) The free fraction is the amount of compound that is considered thermodynamically free in solution compared to the amount which is considered to be thermodynamically bound to the albumin proteins.

4% BSA = 4% BSA (Bos taurus, UniProt P02769); test: Free fraction by equilibrium dialysis in 4% BSA; assay type: in vitro ADME; conditions: bovine, DPDPE line: 1 uM
Description: as §5

CYP2C9 = CYP2C9 (Homo sapiens, UniProt P11712)
Description: (§1) Sandwich-Cultured Hepatocytes (SCH) were prepared using freshly isolated hepatocytes or cryopreserved hepatocytes. Freshly isolated hepatocytes were plated on 24-well cell culture plates, rinsed and fed with the appropriate species specific Qualyst Transporter Solutions (QTS, Durham, North Carolina, United States of America) propriety culture medium (QualGro™). Cells were maintained in the appropriate species specific medium until consumed in studies.
(§2) Cryopreserved hepatocytes were thawed following manufacturer's thawing instructions. Cryopreserved hepatocytes were subsequently suspended in QTS propriety hepatocyte seeding medium (QualGro™ Seeding Medium) at a density of 0.7-0.8 million viable cells/mL onto BioCoat® 24-well cell culture plates. Following plating, cells were allowed to attach for 2-4 hours, rinsed and fed with warm (37° C.) seeding medium. Eighteen to 24 hours later, cells were fed and overlaid with the appropriate species specific QTS propriety culture medium (QualGro™) supplemented with extracellular matrix (ECM), Matrigel® (0.25 mg/mL). Cells were maintained in QualGro™ Hepatocyte Culture Medium until consumed in studies.
(§3) Cells were cultured as described above through day 6 of culture. On day 7 of culture, spent culture medium was aspirated and replaced with HBSS incubation solution with or without 4% bovine serum albumin (BSA). […] In situ incubations were performed in cell culture incubators (37° C.; 5% CO2; 100% humidity) shaking at 120 rpm for 20-30 minutes. Following the incubation period, incubation solutions were collected and stored at −80° C. until processed for bioanalysis.
(§4) In situ incubations were analyzed for the detection of P450 mediated metabolite formation of hydroxymidazolam from midazolam and hydroxyibuprofen from ibuprofen. Briefly, a volume of 300 μL of internal standard solution (methanol containing 25 nM triazolam and d3-ibuprofen) and a volume of 100 μL of HBSS or HBSS plus 4% BSA were added to a protein precipitation plate (Millipore MDRPNP4; EDM Millipore, Billerica, Massachusetts, United States of America) stacked on a 96 deep well block. The plate was allowed to shake for 1 to 2 minutes prior to centrifugation for collection of the filtered supernatant. The sample filtrate was evaporated to dryness and the samples were reconstituted in 200 μL sample diluent, 40/60 methanol/10 mM ammonium acetate and mixed for at least 20 min on a plate shaker. The reconstituted samples were transferred to a Millipore 0.45 μm filter plate (Millipore MSHVN45) and filtered into a Costar 3957 plate by centrifugation and sealed with a silicone capmat prior to LC-MS/MS analysis.

CYP3A4 = system: CYP3A4
Description: as §1, §2, §3, §4

human hepatocytes = test: Intracellular concentration in human hepatocytes in the presence of albumin protein; assay type: in vitro ADME
Text: The observed effects of protein on the intracellular concentration, could lead to an over- or under-prediction of a compound's effect, drastically changing the expected clinical outcome. […] However, the intracellular concentrations never achieved high enough levels to result in hepatotoxic effects. […] Since the effect of protein was unanticipated and not predictable, it is desirable to expose the cell to protein during the experiment.

[3] = cited from earlier work
[4] = HBSS value adjusted with free fraction, DPDPE 10 uM
[5] = absence of protein (HBSS), adjusted with free fraction of Table 1, 1 μM

Sequence of 4% BSA (P02769 25-607): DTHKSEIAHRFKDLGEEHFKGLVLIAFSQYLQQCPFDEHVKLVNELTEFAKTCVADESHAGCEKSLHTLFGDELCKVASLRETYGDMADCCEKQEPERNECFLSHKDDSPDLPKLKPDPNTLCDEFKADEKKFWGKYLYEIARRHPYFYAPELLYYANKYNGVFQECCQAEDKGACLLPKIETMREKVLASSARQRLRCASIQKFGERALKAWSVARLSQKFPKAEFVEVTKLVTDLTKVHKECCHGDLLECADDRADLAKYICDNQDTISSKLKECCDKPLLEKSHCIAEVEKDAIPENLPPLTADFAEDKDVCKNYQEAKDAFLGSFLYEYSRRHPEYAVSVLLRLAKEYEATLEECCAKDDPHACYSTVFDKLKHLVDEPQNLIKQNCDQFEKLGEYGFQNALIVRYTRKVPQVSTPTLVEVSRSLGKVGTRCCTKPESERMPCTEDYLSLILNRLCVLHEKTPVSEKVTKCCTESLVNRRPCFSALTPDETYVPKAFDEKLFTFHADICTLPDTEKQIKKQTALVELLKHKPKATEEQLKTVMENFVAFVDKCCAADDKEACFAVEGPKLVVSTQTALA
Sequence of CYP2C9 (P11712 whole entry): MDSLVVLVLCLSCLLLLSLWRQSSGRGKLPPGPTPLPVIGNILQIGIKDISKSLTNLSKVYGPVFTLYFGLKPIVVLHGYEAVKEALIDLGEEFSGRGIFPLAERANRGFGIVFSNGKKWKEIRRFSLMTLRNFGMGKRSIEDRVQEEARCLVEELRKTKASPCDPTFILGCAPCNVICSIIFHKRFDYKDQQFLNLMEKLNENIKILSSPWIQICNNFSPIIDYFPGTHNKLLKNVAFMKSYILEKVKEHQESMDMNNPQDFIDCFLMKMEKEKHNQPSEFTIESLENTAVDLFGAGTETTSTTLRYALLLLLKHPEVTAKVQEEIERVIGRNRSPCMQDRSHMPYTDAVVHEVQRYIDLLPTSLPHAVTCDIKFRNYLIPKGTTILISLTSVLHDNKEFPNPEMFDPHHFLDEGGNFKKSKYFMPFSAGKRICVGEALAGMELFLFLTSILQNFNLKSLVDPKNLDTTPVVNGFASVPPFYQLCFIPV

Row | Structure (SMILES) | Predicted ICC (uM) HBSS (Rat Hepatocytes; [5]) [µM] | Observed ICC (uM) BSA (Rat Hepatocytes; 1 μM) [µM] | Intrinsic Biliary Clearance, BSA [1] [mL/min/kg] | Intrinsic Biliary Clearance, No Protein ([1]; rat) [mL/min/kg] | Predicted Cl (ml/min/Kg) HBSS ([1]; rat, 10 min, 1 μM) [mL/min/kg] | Intrinsic Biliary Clearance, Serum ([1]; rat) | fraction unbound (4% BSA) | fraction unbound [2] | also measured
1 | CC1(C)SSC(C)(C)[C@@H](NC(=O)[C@@H](N)Cc2ccc(O)cc2)C(=O)NCC(=O)N[C@@H](Cc2ccccc2)C(=O)N[C@H]1C(=O)O [DPDPE] | 1.42 | 1.98 | – | – | – | – | – | – | Predicted ICC (uM) HBSS (Rat Hepatocytes; [4]): 13.63 µM; Observed ICC (uM) BSA (Rat Hepatocytes; DPDPE 10 uM): 15.51 µM; Predicted Cl (ml/min/Kg) HBSS [1, 4]: 4.24 mL/min/kg; Predicted Cl (ml/min/Kg) HBSS ([1]; measured in absence of protein (HBSS), adjusted with free fraction of Table 1, 1 μM): 5.69 mL/min/kg; Observed Cl (ml/min/Kg) BSA ([1]; 1 μM): 2.51 mL/min/kg; Observed Cl (ml/min/Kg) BSA ([1]; DPDPE 10 uM): 3.32 mL/min/kg; Predicted biliary clearance compared with observed biliary clearance ([1]; two-step prediction vs measurement with BSA, DPDPE at 1 μM): over-estimated
2 | C[C@H]1O[C@@H](O[C@H]2[C@@H](O)C[C@H](O[C@H]3[C@@H](O)C[C@H](O[C@H]4CC[C@@]5(C)[C@H](CC[C@@H]6[C@@H]5C[C@@H](O)[C@]5(C)[C@@H](C7=CC(=O)OC7)CC[C@]65O)C4)O[C@@H]3C)O[C@@H]2C)C[C@H](O)[C@@H]1O [Digoxin] | 1.59 | 1.29 | 9.25 | 10.4 | 8.85 | 5.12 | 0.852 | – | Free Fraction in Serum [2]: 0.727
3 | OC(Cn1cncn1)(Cn1cncn1)c1ccc(F)cc1F [Fluconazole] | – | – | – | – | – | – | – | – | CYP2C9 enzyme activity reduced to % of control (CYP2C9): 24.4-45.1 % of control
4 | CC(=O)N1CCN(c2ccc(OCC3COC(Cn4ccnc4)(c4ccc(Cl)cc4Cl)O3)cc2)CC1 (stereo not drawn) [Ketoconazole] | – | – | – | – | – | – | – | – | CYP3A4/5 Mean % Remaining (CYP3A4; 4% BSA, inhibitor 0.0500 μM): 54.6%; CYP3A4/5 Mean % Remaining (CYP3A4; 4% BSA, inhibitor 0.250 μM): 40.8%; CYP3A4/5 Mean % Remaining (CYP3A4; No BSA, inhibitor 0.050 μM): 45.1%; CYP3A4/5 Mean % Remaining (CYP3A4; No BSA, inhibitor 0.250 μM): 24.4%
5 | CN(Cc1cnc2nc(N)nc(N)c2n1)c1ccc(C(=O)N[C@@H](CCC(=O)O)C(=O)O)cc1 [Methotrexate] | 0.48 | 0.47 | 0.19 | 0.54 | 0.23 | 0.91 | 0.428 | 0.499 | –
6 | O=C(O)C[C@H](O)C[C@H](O)/C=C/c1c(C2CC2)nc2ccccc2c1-c1ccc(F)cc1 [Pitavastatin] | – | – | 140 | 52 | 2.44 | 277.50 | 0.047 | 0.004 | Predicted biliary clearance compared with observed biliary clearance [1]: under-estimated by a significant amount
7 | CC[C@H](C)C(=O)O[C@H]1C[C@H](O)C=C2C=C[C@H](C)[C@H](CC[C@@H](O)C[C@@H](O)CC(=O)O)[C@H]21 [Pravastatin] | – | – | 6.47 | 7.35 | 5.39 | 2.06 | 0.734 | 0.554 | –
8 | CC(C)c1nc(N(C)S(C)(=O)=O)nc(-c2ccc(F)cc2)c1/C=C/[C@@H](O)C[C@@H](O)CC(=O)O [Rosuvastatin] | 3.09 | 6.81 | 164 | 53.1 | 7.22 | – | 0.136 | – | Predicted biliary clearance compared with observed biliary clearance [1]: under-estimated by a significant amount
9 | CCCCC(=O)N(Cc1ccc(-c2ccccc2-c2nnn[nH]2)cc1)[C@H](C(=O)O)C(C)C [Valsartan] | 0.44 | 0.22 | 3.06 | 4.73 | 0.36 | 1.39 | 0.075 | 0.004 | –
10 | CCCc1nc2c(C)cc(-c3nc4ccccc4n3C)cc2n1Cc1ccc(-c2ccccc2C(=O)O)cc1 [telmisartan] | – | – | – | – | – | – | – | – | Intracellular concentration in presence of protein greater than predicted from protein-free data adjusted by free fraction (human hepatocytes): 100 ×; Toxicity associated with its use (in vivo data) [3]: no known toxicity
